Experimental data reported in US12642779B1, “Albuterol aerosol suspension formulation for oral inhalation with high amount of green propellant hydrofluoroolefin (HFO) and free of co-solvent” (Amphastar Pharmaceuticals, Inc., priority 2025, dated 2026).
Like-named read-outs stand apart in the source and are kept apart here.

Key:
[1] = Surfactant solubility in HFO-1234ze (E) propellant; assay type: physicochemical
[2] = cited from earlier work

With polyvinylpyrrolidone K25 [PVP K25] as the compound, how does the “Solubility of surfactant in HFO-1234ze (E)” value (“Solubility of surfactant” for short) [1] read?
Its value is “exhibited certain solubility in HFO-1234ze (E) and showed homogenous phase”.

With sorbitan trioleate [span 85] as the compound, how does the “Solubility of surfactant” value [1] read?
Its value is “exhibited certain solubility in HFO-1234ze (E) and showed homogenous phase”.

With “polyoxyethylene (20) sorbitan monooleate [polysorbate 80]” as the compound, how does the “Solubility of surfactant” value [1] read?
Its value is “exhibited certain solubility in HFO-1234ze (E) and showed homogenous phase”.

With polyethylene glycol 1000 [PEG 1000] as the compound, how does the “Solubility of surfactant” value [1] read?
The value was “exhibited certain solubility in HFO-1234ze (E) and showed homogenous phase”.

For `FC(C(F)(F)F)C(F)(F)F` [HFA-227, 1,1,1,2,3,3,3-Heptafluoropropane], which “Liquid Density at 20° C.” value [2] is on record?
The value was 1.41 g/mL.

And the “Vapor Pressure at 20° C.” value [2]?
The value was 56.6 psi.

What about the “Viscosity at 20° C.” value [2] of the same compound?
The value was 0.26 cP.

What about the Water solubility ([2]; at 25° C.) of the same compound?
Its Water solubility is 610 at 25 °C ppm.

Which “Liquid Density at 20° C.” value [2] does the source give for `F/C=C/C(F)(F)F` [HFO-1234ze(E), Trans-1,3,3,3-Tetrafluoropropene] here?
Its value is 1.19 g/mL.

And the “Vapor Pressure at 20° C.” value [2]?
The value was 46.4 psi.

What about the “Viscosity at 20° C.” value [2] of the same compound?
Its value is 0.19 cP.

What about the Water solubility ([2]; at 20° C.) of the same compound?
The Water solubility was 225 at 20 °C ppm.

Which “Solubility of surfactant” value ([1]; in HFO-1234ze (E) propellant) does the source give for “polyoxyethylene (20) sorbitan monolaurate [polysorbate 20]” here?
The value was “exhibited certain solubility in HFO-1234ze (E) and showed homogenous phase”.

What does the source list for `FCC(F)(F)F` [HFA-134a, 1,1,1,2-Tetrafluoroethane]?
Liquid Density at 20° C. [2]: 1.21 g/mL; Vapor Pressure at 20° C. [2]: 83.0 psi; Viscosity at 20° C. [2]: 0.20 cP; Water solubility ([2]; at 25° C.): 1100 at 25 °C ppm
